Results taken from patent US20250319049A1, “Additive for animal nutrition” (ADISSEO FRANCE S.A.S., priority 2022, published 2025).

What was measured:
[1] = in vitro upper digestive tract model (simulated chicken crop, proventriculus/gizzard, intestine): release of butyric acid; type: in vitro ADME; conditions: 50 mM butyric acid equivalent; for release of butyric acid in the stomach: proventriculus/gizzard 45 min at pH 3, 40° C. with pepsin
Description: The experimental tests were conducted in in vitro models described below.
The method developed by Menezez and Blackburn was used to simulate the chicken digestive tract [Menezes-Blackburn D, Gabler S, Greiner R. «Performance of Seven Commercial Phytases in an in Vitro Simulation of Poultry Digestive Tract.»J Agric Food Chem. 2015 Jul. 15; 63 (27): 6142-9]. It consists of simulating the 3 compartments of the upper part of the digestive tract: the crop (30 min at pH 5, 40° C. with stirring), the proventriculus/gizzard (45 min at pH 3, 40° C. with stirring with the addition of pepsin), the intestine (60 min at pH 6.5, 40° C. with stirring with the addition of pancreatin and bile extract). The rate of protection and release of butyrate for each molecule (50 mM butyric acid equivalent of the butyryl lactylate of the disclosure or tributyrin of the prior art) was evaluated in each compartment sequentially (quantification of the release of butyric acid and residual butyric ester).

[2] = palatability / growth performance test in broilers; type: in vivo; conditions: broiler chickens, 17-21 days, butyrate source incorporated in standard feed (STD), five days
Description: This evaluation was carried out by in vivo tests conducted in broilers and in piglets at the post-weaning stage. The chickens were placed in normal breeding conditions. They were divided into several groups, and each group received for five days a feed containing a source of butyrate, incorporated directly into a standard feed (STD). […] The growth performances and feed consumption were measured at the beginning and end of the study.

[3] = in vitro lower digestive tract model (caecal fermentation): release of butyric acid; type: in vitro ADME, broiler chickens (Ross PM33); conditions: 50 mM butyric acid equivalent; upper tract model plus caecal fermentation 24 hours at 40° C.
Description: Twelve twenty-one-day-old broiler chickens (Ross PM33), housed in cages, fed and watered ad libitum, were euthanized and their caecal contents were collected and pooled. All experiments were conducted in accordance with the European Union animal protection guidelines and the legislation governing the ethical treatment of animals, and the researchers were certified by the French government to conduct animal experiments. The facilities of the Centre of Expertise and Research in Nutrition comply with Convention No. C 03 159 4 of 6 Nov. 2008, relating to experiments on living vertebrate animals (European Regulation 24/11/86 86/609 EEC; Ministerial Order of 19 Apr. 1988).
The cecal contents were mixed (5% w/v) with an anaerobic buffer prepared according to Theodorou et al. [Theodorou, Michael K., et al. “A simple gas production method using a pressure transducer to determine the fermentation kinetics of ruminant feeds.” Animal feed science and technology 48.3-4 (1994): 185-197], then the microbial suspension transferred into Hungate tubes containing 50 mM of butyric acid equivalent for each candidate (butyryl lactylate of the disclosure or tributyrin of the prior art) and incubated for 24 hours with constant stirring at 40° C.
At the end of the fermentation, the butyric acid and residual butyric ester were quantified.

[4] = hydrolysis in drinking water; type: physicochemical; conditions: drinking water of livestock
[5] = solubility in water; type: physicochemical
[6] = palatability / growth performance test in post-weaning piglets; type: in vivo; parameters: concentration or dose not given beside the values; conditions: butyrate source in standard feed (STD); for BWG (body weight gain), effect compared to a standard control: 36-49 days old; for FCR (feed conversion ratio), effect compared to a standard control / FI (feed intake), effect compared to a standard control: 36-49 days
Description: This evaluation was carried out by in vivo tests conducted in broilers and in piglets at the post-weaning stage.
The animals were placed in normal breeding conditions.
They were divided into four distinct groups, and each group received for about ten days (from 36 to 49 days of age) a standard feed (STD) containing a source of butyrate. Several sources of butyrate were compared: the butyryl lactylate of the disclosure and two protected forms of butyrate, commercially available, a coated butyrate (fat-coated) and tributyrin.
The growth performances and feed consumption were measured at the beginning and end of the study.

[7] = listed as STD + butyryl lactylate
[8] = listed as STD + Butyryl lactylate
[9] = listed as STD + tributyrine butyrate

SMILES | release of butyric acid in the stomach [1] | BWG (body weight gain), effect compared to a standard diet [2] | FCR (feed conversion ratio), effect compared to a standard diet [2] | FI (feed intake), effect compared to a standard diet [2] | BWG (body weight gain), effect compared to a standard control [6] | FCR (feed conversion ratio), effect compared to a standard control [6] | FI (feed intake), effect compared to a standard control [6] | other results
CCCC(=O)OC(C)C(=O)O (stereo not shown) [butyryl lactylate] | does not release butyric acid in the stomach | +10% | −6.7% | +2.8% | +21% | −4% | +16% | BWG (body weight gain), effect compared to a standard diet [2, 7]: +10%; FI (feed intake), effect compared to a standard diet [2, 7]: +2.8%; intestinal release profile of butyric acid, upper and lower intestine [3]: balanced release in the upper and lower intestine; hydrolysis into lactic acid and free butyric acid in drinking water [4]: without risk of hydrolysis; solubility in water [5]: soluble in water; BWG (body weight gain), effect compared to a standard control [6, 8]: +21%; FCR (feed conversion ratio), effect compared to a standard control [6, 8]: −4.8%; FI (feed intake), effect compared to a standard control [6, 8]: +16%
CCCC(=O)OCC(COC(=O)CCC)OC(=O)CCC [tributyrin, reference compound] | significant gastric loss | −9% | +6.6% | −3% | −17% | +3.3% | −14% | release of butyric acid in the intestine (upper part) ([1]; intestine 60 min at pH 6.5, 40° C. with pancreatin and bile extract): complete release at the beginning of the small intestine; BWG (body weight gain), effect compared to a standard diet [2, 9]: −9%; FI (feed intake), effect compared to a standard diet [2, 9]: −3%; BWG (body weight gain), effect compared to a standard control [6, 9]: −17%; FCR (feed conversion ratio), effect compared to a standard control [6, 9]: +3.3%; FI (feed intake), effect compared to a standard control [6, 9]: −14%
